Read-outs that look alike come from different tables or passages of the source.
Legend:
[1] = system: A375 human melanoma xenografts; test: Example 9 efficacy study Part I in A375 human melanoma xenografts (tumor volume, T/C, TGI); type: in vivo, BALB/c nude mice; conditions: 100 mg/kg, p.o., QD × 14 days
Method: For efficacy study Part I, agents were tested in the A375 human melanoma xenografts. Compound 218 and Compound 157 were administered to BALB/c nude mice bearing A375 xenografts from day 0 and dosed twice a day (BID) for 14 days. Compound 218 and Compound 157 were dosed at 10 mg/kg via p.o.. Dabrafenib was administered from day 1 daily (QD) for 14 days and dosed at 100 mg/kg via p.o..
The A375 tumor cells were maintained in vitro in DMEM medium supplemented with […] and 1% Penicillin-Streptomycin at 37° C. in an atmosphere of 5% CO2 in air. The tumor cells were routinely subcultured twice weekly. The cells growing in an exponential growth phase were harvested and counted for tumor inoculation.
Each mouse was inoculated subcutaneously at the right flank with A375 cells (5×10^6) in 0.2 mL of PBS supplemented with Matrigel (PBS: Matrigel=1:1) for tumor development. Animals were grouped for the treatment when the average tumor volume reached 243 mm^3 for efficacy study part I and 413 mm^3 for the PK and PD study part I on day 15, and 271 mm^3 for efficacy part II and 443 mm^3 for the PK and PD part II on day 18, and 463 mm^3 for the PK and PD study part III on day 21. The test articles administration and the animal numbers in each group are shown in the above experimental tables.
Prior to the onset of drug treatment, mice were measured for tumor size in two dimensions using a caliper, and the tumor volume (mm^3) was calculated using formula V=0.5 a×b^2 where a and b are the long and short diameters of the tumor in mm, respectively. Mice were randomized into different treatment groups based on the tumor volume.
The major endpoint was to see if the tumor growth could be delayed or mice could be cured. The tumor size was then used for calculations of T/C value. The T/C value (in percent) is an indication of antitumor effectiveness; T and C are the mean volumes of the treated and control groups, respectively on specified day.
TGI was calculated for each group using the formula: TGI (%)=[1−(Ti−T0)/(Ci−C0)]×100; Ti is the average tumor volume of a treatment group on a given day, To is the average tumor volume of the treatment group on the day of treatment start, Ci is the average tumor volume of the vehicle control group on the same day with Ti, and C0 is the average tumor volume of the vehicle group on the day of treatment start.

[2] = Example 7 pharmacokinetics assay for PKPD study (plasma, tumor, liver); type: in vivo, BALB/c nude mice; conditions: mouse, po, 100 mg/kg, p.o., single dose
Method: For the PK and PD study, agents were administered to BALB/c nude mice bearing A375 human melanoma xenografts tumors. Dabrafenib, Compound 141, Compound 118, Compound 156, and Compound 180 were dosed p.o. once on day 1. Known BRAF inhibitor Dabrafenib was used as a positive control. Dabrafenib was dosed at 100 mg/kg. Compound 141, Compound 118, Compound 156, and Compound 180 were dosed at 10 mg/kg.
The plasma samples were collected at predetermined time points for PK analysis. The mice were euthanized at predetermined time points post the treatment. The blood samples were collected into the 1.5 mL Eppendorf tubes containing 15 μL of 0.5 M EDTA-K2. And then the anticoagulant blood samples were centrifuged at 2,500 g at 4° C. for 15 minutes. The plasma samples were separated into 2 aliquots. The 1st was used for PK analysis, and the 2nd served as backup. The samples were stored at −80° C. before bioanalysis.
The tumor samples were collected at predetermined time points for PK and WB analysis. The tumor was dissected out and split into 3 parts. The 1st part was used for PK analysis, the 2nd part was used for WB analysis and the last one served as backup for study. The samples were transferred into pre-labeled tubes and quickly froze in liquid nitrogen within 2 minutes after dissection. The samples were stored at −80° C. before bioanalysis.
Liver samples were collected at predetermined time points for PK analysis. The left lobe of the liver was dissected out and split into 2 parts. The 1st part was used for PK analysis and the 2nd part served as the backup for the study. The samples were transferred into pre-labeled tubes and quickly froze in liquid nitrogen within 2 minutes after dissection. The samples were stored at −80° C. before bioanalysis.
The harvested plasma and liver samples were processed for pharmacokinetics analysis by LC-MS/MS with a concentration range of 0.500-1000 ng/mL for Dabrafenib, Compound 118 and Compound 180 in plasma, 0.100~200 ng/ml for Dabrafenib in Liver and tumor homogenate, 50.0~50,000 ng/mL for Compound 141 in plasma and Liver homogenate, 1.00-1000 ng/ml for Compound 141 in tumor homogenate, 2.00~2000 ng/mL for Compound 118 and Compound 180 in Liver and 0.200~200 ng/ml in tumor homogenate, 1.00~2000 ng/mL for Compound 156 in plasma, 0.500-1000 ng/ml in liver and 0.500-1,000 ng/ml in tumor homogenate.

[3] = Pharmacokinetics in female BALB/c nude mice bearing A375 xenografts, 1 day dosing (PK and PD study): plasma, tumor and brain concentrations, AUC; type: in vivo; conditions: 100 mg/kg p.o. QD × 1 day; for Mean Concentration in Brain ± SEM / Mean Concentration in Plasma ± SEM: BQL: below the lower limit of quantitation
Description: The concentrations of Dabrafenib, Compound 26 and Compound 141 in the treatment of female BALB/c nude mice bearing A375 xenografts are shown in Table 62-Table 72 and FIG. 52-FIG. 73.

[4] = liver, read-out: Concentration in Liver (mean ± SEM)
[5] = plasma, read-out: Concentration in Plasma (mean ± SEM)
[6] = tumor, read-out: Concentration in Tumor (mean ± SEM)
[7] = mouse, brain, po, 100 mg/kg, read-out: Mean Concentration in Brain ± SEM
[8] = mouse, plasma, po, 100 mg/kg, read-out: Mean Concentration in Plasma ± SEM
[9] = mouse, tumor, po, 100 mg/kg, read-out: Mean Concentration in Tumor ± SEM

For CC(C)(C)c1nc(-c2cccc(NS(=O)(=O)c3c(F)cccc3F)c2F)c(-c2ccnc(N)n2)s1 [Dabrafenib, dabrafenib, reference compound], the “Tumor Volume Trace Over Time” value ([1]; Day 0, Mean ± SEM) was 243 ± 4 mm^3, the “Tumor Volume Trace Over Time” value ([1]; Day 3, Mean ± SEM) was 370 ± 17 mm^3 and the “Tumor Volume Trace Over Time” value ([1]; Day 7, Mean ± SEM) was 445 ± 13 mm^3. The “Tumor Volume Trace Over Time” value ([1]; Day 10, Mean ± SEM) was 475 ± 23 mm^3, the “Tumor Volume Trace Over Time” value ([1]; Day 14, Mean ± SEM) was 521 ± 31 mm^3 and the “Tumor Size on PG-D14” value ([1]; Mean ± SEM) was 521 ± 31 mm^3. For the same compound, the “TGI (Tumor Growth Inhibition)” value ([1]; PG-D14) was 74.65%, the T/C ([1]; PG-D14, treated/control average tumor volume) was 38.87% and the concentration at 6 h [2, 4] was 2450 ± 737 ng/g. It also gave a concentration at 12 h [2, 4] of 1110 ± 453 ng/g, a concentration at 1 h [2, 5] of 7370 ± 865 ng/mL and a concentration at 6 h [2, 5] of 1140 ± 390 ng/mL. For the same compound, the concentration at 12 h [2, 5] was 336 ± 137 ng/mL, the concentration at 24 h [2, 5] was 3.88 ± 2.43 ng/mL and the concentration at 1 h [2, 6] was 9520 ± 2050 ng/g. The concentration at 6 h [2, 6] was 702 ± 341 ng/g, the concentration at 12 h [2, 6] was 242 ± 96 ng/g and the concentration at 24 h [2, 6] was 5.53 ± 0.951 ng/g. The “Mean Concentration in Brain ± SEM” value ([3]; 10 h) was “BQL^a”, the “Mean Concentration in Brain ± SEM” value ([3]; 24 h) was “BQL” and the “Mean Concentration in Plasma ± SEM” value ([3]; 36 h) was “BQL”. For the same compound, the “Mean Concentration in Plasma ± SEM” value ([3]; 48 h) was “BQL”, the concentration at 1 h [3, 7] was 1040 ± 349 ng/g and the concentration at 4 h [3, 7] was 6.13 ng/g. The concentration at 48 h ([3]; mouse, brain, po, 100 mg/kg, 48 h, read-out: Mean Concentration in Brain ± SEM) was 15.2 ng/g, the AUC at 24 h ([3]; mouse, brain, po, read-out: Brain AUC at 24 hours, Average) was 1580 ng·h/mL and the concentration at 0.25 h ([3]; mouse, plasma, po, 100 mg/kg, 0.25 h, read-out: Mean Concentration in Plasma ± SEM) was 62.2 ± 10.9 µg/mL. The concentration at 0.5 h ([3]; mouse, plasma, po, 100 mg/kg, 0.5 h, read-out: Mean Concentration in Plasma ± SEM) was 44700 ± 11600 ng/mL, the concentration at 1 h [3, 8] was 7490 ± 1360 ng/mL and the concentration at 2 h ([3]; mouse, plasma, po, 100 mg/kg, 2 h, read-out: Mean Concentration in Plasma ± SEM) was 844 ± 198 ng/mL. For the same compound, the concentration at 4 h [3, 8] was 110 ± 37.6 ng/mL, the concentration at 8 h ([3]; mouse, plasma, po, 100 mg/kg, 8 h, read-out: Mean Concentration in Plasma ± SEM) was 55.6 ± 15.5 ng/mL and the concentration at 10 h ([3]; mouse, plasma, po, 100 mg/kg, 10 h, read-out: Mean Concentration in Plasma ± SEM) was 25.9 ± 2.09 ng/mL. For the same compound, the concentration at 24 h ([3]; mouse, plasma, po, 100 mg/kg, 24 h, read-out: Mean Concentration in Plasma ± SEM) was 0.616 ng/mL, the AUC at 24 h ([3]; mouse, plasma, po, read-out: Plasma AUC at 24 hours, Average) was 32100 ng·h/mL and the concentration at 1 h [3, 9] was 8660 ± 4660 ng/g. It also gave a concentration at 4 h [3, 9] of 442 ± 257 ng/g, a concentration at 10 h ([3]; mouse, tumor, po, 100 mg/kg, 10 h, read-out: Mean Concentration in Tumor ± SEM) of 18 ± 1.88 ng/g and a concentration at 24 h ([3]; mouse, tumor, po, 100 mg/kg, 24 h, read-out: Mean Concentration in Tumor ± SEM) of 253 ng/g. It also gave a concentration at 48 h ([3]; mouse, tumor, po, 100 mg/kg, 48 h, read-out: Mean Concentration in Tumor ± SEM) of 4.66 ng/g and an AUC at 24 h ([3]; mouse, tumor, po, read-out: Tumor AUC at 24 hours, Average) of 1680 ng·h/mL.

Source: patent US20260297060A1, “COMPOUNDS FOR THE DEGRADATION OF MUTANT BRAF” (C4 THERAPEUTICS, INC., priority 2023, published 2026)
